Measurements as given in paper PMC11995866, “Roles of basic amino acid residues in substrate binding and transport of the light-driven anion pump Synechocystis halorhodopsin (SyHR)” (The Journal of Biological Chemistry, 2025).
Numbering of substitutions follows the chain as printed.

Assays:
[1] = target: T1, Synechocystis halorhodopsin (SyHR) (Synechocystis sp. PCC 7509, UniProt A0A9X9ZA75); test: absorption spectral shift titration (UV-visible), single-site Hill fit; format: binding
T1 construct: codon-optimised, C-terminal His6 tag, pET21a, E. coli BL21(DE3) with all-trans retinal; HisTrap-purified in DDM
T1 sequence (A0A9X9ZA75 1-234): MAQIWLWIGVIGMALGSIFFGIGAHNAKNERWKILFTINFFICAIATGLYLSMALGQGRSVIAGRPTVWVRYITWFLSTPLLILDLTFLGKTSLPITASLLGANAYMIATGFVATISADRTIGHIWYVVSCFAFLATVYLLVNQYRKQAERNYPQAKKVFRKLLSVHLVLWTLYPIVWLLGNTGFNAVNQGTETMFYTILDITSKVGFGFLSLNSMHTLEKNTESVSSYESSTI

[2] = target: T2, Synechocystis halorhodopsin (SyHR) (Synechocystis sp. PCC 7509, UniProt A0A9X9ZA75, R71K); test: as above; format: binding
T2 construct: codon-optimised, C-terminal His6 tag, pET21a, E. coli BL21(DE3) with all-trans retinal; HisTrap-purified in DDM
T2 sequence (A0A9X9ZA75 1-234 R71K): T1 sequence (A0A9X9ZA75 1-234) with R71K

[3] = target: T3, Synechocystis halorhodopsin (SyHR) (Synechocystis sp. PCC 7509, UniProt A0A9X9ZA75, H167A); test: as above; format: binding
T3 construct: codon-optimised, C-terminal His6 tag, pET21a, E. coli BL21(DE3) with all-trans retinal; HisTrap-purified in DDM
T3 sequence (A0A9X9ZA75 1-234 H167A): T1 sequence (A0A9X9ZA75 1-234) with H167A

[4] = target: T4, Synechocystis halorhodopsin (SyHR) (Synechocystis sp. PCC 7509, UniProt A0A9X9ZA75, R71A); test: biochemical
T4 sequence (A0A9X9ZA75 1-234 R71A): T1 sequence (A0A9X9ZA75 1-234) with R71A

[5] = target: T5, Synechocystis halorhodopsin (SyHR) (Synechocystis sp. PCC 7509, UniProt A0A9X9ZA75, R71Y); test: biochemical
T5 sequence (A0A9X9ZA75 1-234 R71Y): T1 sequence (A0A9X9ZA75 1-234) with R71Y

SMILES | Kd [1] [mM] | Kd [2] [mM] | Kd [3] [mM] | Kd [4] [mM] | Kd [5] [mM]
O=S(=O)(O)O [SO4^2−] | 3.6 | 3.8 | 6.5 |  | 
Cl [Cl^−] | 0.59 | 0.55 | 0.36 | 4.5 | 1.4
